Measurements: patent publication US8754217B2, “Nalmefene hydrochloride dihydrate” (H. Lundbeck A/S, priority 2008, dated 2014)
Counter-ions that a name gives are not always drawn.

Tests used:
[1] = Particle size by Laser Diffraction (Malvern Mastersizer S); assay type: physicochemical; conditions: Example 3 batch, mineral oil as dispergent
Experimental: In the present context, particle sizes are determined by Laser Diffraction using a Malvern Mastersizer S instrument as disclosed in details in the introductory part of the experimental section.
In the present context, particle sizes are determined by Laser Diffraction using a Malvern Mastersizer S instrument made up of a laser transmitter (LASER HELIUM-NEON-wavelength 632 nm), an optical system (300 F lens, range 0.5-900 μm), a measurement cell for suspension (beam length 2.4 mm) and a photodiode detector. The sample is analysed using mineral oil (CAS 8042-47) as dispergent.
The particle size of the so obtained Nalmefene hydrochloride dihydrate was determined by Laser Diffraction using a Malvern Mastersizer S instrument.

[2] = DVS (Dynamic Vapour Sorption) experiments, hygroscopicity; assay type: physicochemical
Experimental: As shown in Example 1 of the present invention, DVS (Dynamic Vapour Sorption) experiments were performed at 25° C. and at 40° C. […] In contrast hereto, as shown in Example 2, Nalmefene hydrochloride as monohydrate absorbed about 2.5% water when exposed to 95% RH and 40° C.
DVS experiments were performed at 25° C. and at 40° C. The dihydrate is retained at relative humidity of 10-95%. Adsorption to the surface at high relative humidity is less than 0.2%. Desorption of the crystal water occurs slowly under 10% RH.
DVS experiments were performed at 25° C. and at 40° C. The shape of the curves was the same, only the curve at 40° C. is shown (FIG. 5).
Most of the water of hydration (4%) was absorbed at 10% RH. […] The amounts here are given as % weigh increase relative to dry, thus the weight gain corresponding to monohydrate was 4.8% and a 1.5 hydrate corresponds to a gain of 7.2%.

[3] = Brittain, Analytical Profiles of Drug Substances and Excipients (1996); cited from earlier work
[4] = Solubility in aqueous solutions; assay type: physicochemical
Source text: To recover any unused Nalmefene hydrochloride from the methods I or II, outlined above, a method for the recovery has been developed that comprises • (i) optionally, distillation of mother liquors obtained from method (I) or (II) • (ii) basification of the mother liquors obtained in step (i), or from the methods (I) or (II), • (iii) extracting the mixture with a suitable organic solvent, • (iv) adding hydrogen chloride, and • (v) isolating the formed solid

With `C=C1CC[C@@]2(O)[C@H]3Cc4ccc(O)c5c4[C@@]2(CCN3CC2CC2)[C@H]1O5` [Nalmefene hydrochloride dihydrate] the “particle size D10” value [1] was 14 μm, the “particle size D50” value [1] was 122 μm and the “particle size D90” value [1] was 287 μm. For the same compound, the “relative humidity at which the hydrate is retained” value ([2]; DVS at 25° C. and 40° C.) was 10-95%, the “relative humidity under which desorption of the crystal water occurs slowly” value ([2]; DVS at 25° C. and 40° C.) was “under 10 % RH” and the “adsorption to the surface at high relative humidity” value ([2]; DVS at 25° C. and 40° C., high relative humidity) was “less than 0.2%”. For the same compound, the “water absorbed at 95% RH” value ([2]; DVS at 25° C. and at 40° C., 95% RH) was “no water was absorbed”, the “rehydration after drying at 0% RH” value ([2]; DVS-curve, crystal lattice retained) was “complete rehydration” and the “hygroscopicity (in words)” value ([2]; hydrochloride dihydrate) was “non-hygroscopic”.
For `C=C1CC[C@@]2(O)[C@H]3Cc4ccc(O)c5c4[C@@]2(CCN3CC2CC2)[C@H]1O5` [Nalmefene hydrochloride monohydrate], the adventitious moisture sorbed [3] is listed as “up to 1%”, the “water absorbed when exposed to 95% RH and 40° C.” value ([2]; 95% RH, 40° C.) is listed as “about 2.5%” and the “weight increase relative to dry at 10% RH” value ([2]; DVS, 10% RH) is listed as 4%. The “weight increase relative to dry at 50% RH” value ([2]; DVS, 50% RH) was 4.3%, the “weight increase relative to dry at 60% RH” value ([2]; DVS, 60% RH) was 6.9% and the “weight increase relative to dry at 95% RH” value ([2]; DVS, 95% RH) was 7.3%. The “RH above which the form changed into a new structure with higher water content” value ([2]; DVS, Example 2) was “above 50%” and the “hygroscopicity (in words)” value ([2]; listed as Nalmefene hydrochloride as a monohydrate, hydrochloride monohydrate) was “hygroscopic”.
For `C=C1CC[C@@]2(O)[C@H]3Cc4ccc(O)c5c4[C@@]2(CCN3CC2CC2)[C@H]1O5` [Nalmefene hydrochloride, 17-(cyclopropylmethyl)-4,5-α-epoxy-6-methylenemorphinan-3,14-diol hydrochloride], the “solubility in aqueous solutions such as water” value [4] was “highly soluble”.
